Test results taken from US20250084056A1, “SUBSTITUTED OXOISOINDOLINYL PIPERIDINE-2,6-DIONE COMPOUNDS” (BRISTOL-MYERS SQUIBB COMPANY, priority 2023, published 2025).

What was measured:
Format in all cases: cell-based
[1] = tested on: Phospho-Rb (Ser807/811); experiment: Phospho-Retinoblastoma (pRB) Cellular Assay; settings: Homo sapiens, OVCAR-3, NIH OVCAR3 cells, 24 hours; for IC50: concentration giving 50% response; for Emax: maximum response, reference compound at 10 μM = 100%, read-out: pRB Ymax
Procedure: Phospho-Retinoblastoma (pRB) Cellular Assay
NIH OVCAR3 (HTB-161, American Type Culture Collection, Manassas VA) cells were grown up to passage 10 in culture media made up of RPMI (11835-030 Gibco, Grand Island NY), 20% HI FBS (16140-071, Gibco, Grand Island NY), and 0.01 mg/mL insulin from bovine pancreas (I6634-1G, Sigma Aldrich, St. Louis, MO).
The cells were seeded in a 384-well CulturPlate (6007688, Perkin Elmer, Waltham MA) at a density of 10,000 cells/well in 20 μL of the above culture media and incubated overnight at 37° C. and 5% CO2.
The next day, cells were treated using an Echo 650 (Beckman Coulter, Indianapolis IN) acoustic dispenser with 40 nL of compounds dissolved in DMSO at the appropriate serial dilutions (10 mM to […]). Cells were then incubated for 24 hours as above.
After 24 hours elapsed, media was removed from each well and shortly after 20 μL of the following mix was added: 12 μL deionized water, 4 μL lysis buffer, 4 μL of reconstituted antibody mix, and 1:100 phosphatase inhibitor. These components belong to the Phospho-Rb (Ser807/811) Cellular Kit (64RBS807PEY, Perkin Elmer, Waltham MA).
Plates were sealed and incubated away from light at room temperature for at least 4 hours before reading them on an EnVision plate reader (Perkin Elmer, Waltham MA) according to the kit manufacturer's protocol. The reference compound, N-(5-{[(5-tert-butyl-1,3-oxazol-2-yl)methyl]sulfanyl}-1,3-thiazol-2-yl)piperidine-4-carboxamide, at 10 μM was used to define 100% response. Assay results for each compound were reported as IC50, the concentration giving 50% response, and Ymax, the maximum response observed with the compound.

[2] = target: GSPT1 (Homo sapiens, UniProt P15170+Q96SW2); experiment: GSPT1 Cellular Degradation Assay (DF15-GSPT1-ePL); design: expressed in transfected cells; settings: DF15-GSPT1-ePL cells, 20 hours
Source text: DF15-GSPT1-ePL was used for intracellular GSPT1 protein degradation detection in form of chemiluminescent signal, which was built on a human DF15 cell line (CVCL_Y429) with conditional co-expression of chimeric GSPT1 (target) and ePL/donor (enhanced ProLabel® by DiscoverX for enzyme fragment complementation with donor-acceptor pairing). The cells used the culture medium in two arrangements for assay and maintenance. During assay, it used Core-RPMI 1640 medium with 10% Fetal Bovine Serum (Heat Inactivated) and 1× Penicillin/Streptomycin; and during passage maintenance, used added ingredients: 0.1 mM NEAA, 1 mM sodium pyruvate, 25 mM Hepes, 0.1% Pluronic F-68, 1× Glutamin, 4 μg/mL Blasticidin (selection agent). Detection was performed on a 1536 well tissue culture plate (Corning #3727) with cells seeded in 3.5 μL core-RPMI 1640 at density of 0.25 million/mL after the pre-titrated test compounds in DMSO on ECHO plate were dispensed onto the assay plate by use of ECHO (liquid handing system via acoustic energy from Labcyte). Assay incubation lasted 20 hours in 37° C. incubator with 5% CO2; then followed by 30 minutes of plate-cooling at room temperature; then detection-reagent-mix was added in 3.5 μL/well with pre-defined proportion of enzyme acceptor, substrate, and lysis buffer. Plate signal reading for luminescence on an EnVision plate reader (PerkinElmer) was conducted after 60 minutes of former step at room temperature. Raw data was collected and processed with Dotmatics (data analyzer) for test compound's potency values. The reference compound, 3-[5-(3,6-dimethoxyisoquinolin-1-yl)-1-oxo-2,3-dihydro-1H-isoindol-2-yl]piperidine-2,6-dione, at […] was used to define 75% response. Assay results for each compound were reported as DC50, the concentration giving 50% response, and Dmax, the maximum response observed with the compound.

[3] = target: Cyclin E1 (Homo sapiens, UniProt P24864+Q96SW2); experiment: Cyclin E1 Cellular Degradation Assay (MSD); design: endogenous in cells; host or cells: OVCAR3; settings: for DC50 / Dmax: Cyclin E1 cellular degradation; for Dmax: maximum degradation; for Ratio of GSPT1 DC50/Cyclin E1 DC50: selectivity for degradation of Cyclin E1 over GSPT1
Procedure: Culturing cells: On Day 0, OVCAR3 cells were plated at 15,000 cells/well in 40 μL of culture medium (RPMI1640, 20% FBS, 0.01 insulin, 1% Anti/Anti) in a 384 well cell culture plate. Cell cultures were incubated for 24 hours at 37° C. and 5% CO2.
Coating MSD plates: On Day 1, rabbit anti-CCNE1 antibody (Abcam ab33911, 1 μg/mL in DPBS, […]) was dispensed to a Meso Scale Discovery plate (MSD L21XA). The MSD plate was spun briefly to ensure the solution coated the bottom of the well and incubated overnight at 4° C. On Day 2, the plate was washed 3 times with TBS +0.2% TWEEN, blocked for 1 hour with 3% MSD Blocker A (MSD R93AA-1, 30 μL/well), then washed again 3 times with TBS+0.2% TWEEN.
Treating and lysing cells: On Day 1, compounds of interest were dispensed into the cell cultures by acoustic dispensing technology. The cell cultures were then spun at 400 g for 4 minutes to disperse the compounds and incubated at 37° C. and 5% CO2 for 24 hours. After incubation, 40 μL of DPBS was added to the cell cultures to dilute the media. All liquid was gently discarded and immediately replaced with 30 μL of lysis buffer (MSD Tris Lysis buffer (MSD R60TX-2), Halt Protease inhibitor (ThermoFisher 78438), Phosphatase Inhibitor II (Sigma-Aldrich P5726), Phosphatase Inhibitor III (Sigma-Aldrich P0044), 0.02M PMSF (Sigma-Aldrich 7626), 0.1% SDS (VWR E719-100ML)). The plate was then sealed, shaken at 300 rpm at room temperature for 5 minutes, and freeze-thawed for optimum cell lysis.
Collecting data: After thawing, 25 μL of lysate was transferred to a coated MSD plate. The plate was then sealed and shaken at 300 rpm overnight in 4° C. On Day 3, the MSD plate was washed 3 times with TBS+0.2% TWEEN. Mouse anti-CCNE1 antibody (Abcam ab238081, 0.5 μg/mL in 1% MSD Blocker A, 10 μL/well) dispensed to the MSD plate, which was then sealed and shaken at room temperature for 3 hours. After the first antibody incubation, the plate was washed 3 times with TBS+0.2% TWEEN, then goat anti-mouse Sulfo-Tag antibody (MSD R32AC, 1 μg/mL in 1% MSD Blocker A, 10 μL/well) was dispensed to the MSD plate. The plate was sealed again and shaken at room temperature for 1 hour, then washed 3 times with TBS+0.2% TWEEN. After the final wash, 35 μL of 1× Read Buffer (MSD R92TC-1) was added to each well and the data was captured using the MSD plate reader. The reference compound, [2-(2,6-dioxopiperidin-3-yl)-4-methoxy-3-oxo-2,3-dihydro-1H-isoindol-5-yl]methyl N-[4-(3,4-difluorophenoxy)phenyl]carbamate, at […] was used to define […]. Assay results for each compound were reported as DC50, the concentration giving 50% response, and Dmax, the maximum response observed with the compound.

Chain of GSPT1 (P15170 whole entry, the tested form may be a part): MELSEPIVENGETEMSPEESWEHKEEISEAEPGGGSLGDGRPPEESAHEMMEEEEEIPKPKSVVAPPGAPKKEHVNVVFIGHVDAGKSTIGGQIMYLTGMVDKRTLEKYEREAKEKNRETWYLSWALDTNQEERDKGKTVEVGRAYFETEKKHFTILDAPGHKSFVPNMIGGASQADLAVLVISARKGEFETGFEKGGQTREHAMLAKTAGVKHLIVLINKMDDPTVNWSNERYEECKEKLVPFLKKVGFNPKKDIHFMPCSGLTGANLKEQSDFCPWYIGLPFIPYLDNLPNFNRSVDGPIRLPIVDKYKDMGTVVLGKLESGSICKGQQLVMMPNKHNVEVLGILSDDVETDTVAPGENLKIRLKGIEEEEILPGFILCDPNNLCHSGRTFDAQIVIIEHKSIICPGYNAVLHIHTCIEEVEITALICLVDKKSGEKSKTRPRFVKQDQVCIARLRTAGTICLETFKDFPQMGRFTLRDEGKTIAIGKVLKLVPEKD
Chain of GSPT1 (Q96SW2 whole entry, the tested form may be a part): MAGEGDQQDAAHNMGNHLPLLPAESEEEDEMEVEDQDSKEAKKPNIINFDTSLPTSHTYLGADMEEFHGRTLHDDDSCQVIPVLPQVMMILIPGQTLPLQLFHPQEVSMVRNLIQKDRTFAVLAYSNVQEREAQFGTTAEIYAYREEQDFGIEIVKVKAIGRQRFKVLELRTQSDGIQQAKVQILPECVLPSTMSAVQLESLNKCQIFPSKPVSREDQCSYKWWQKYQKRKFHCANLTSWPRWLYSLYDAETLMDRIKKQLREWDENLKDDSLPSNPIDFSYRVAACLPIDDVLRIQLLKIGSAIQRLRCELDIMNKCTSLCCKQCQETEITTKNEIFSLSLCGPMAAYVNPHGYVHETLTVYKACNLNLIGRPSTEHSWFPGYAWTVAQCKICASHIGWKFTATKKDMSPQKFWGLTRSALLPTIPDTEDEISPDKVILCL
Chain of GSPT1 (Q16531 whole entry partner, the tested form may be a part): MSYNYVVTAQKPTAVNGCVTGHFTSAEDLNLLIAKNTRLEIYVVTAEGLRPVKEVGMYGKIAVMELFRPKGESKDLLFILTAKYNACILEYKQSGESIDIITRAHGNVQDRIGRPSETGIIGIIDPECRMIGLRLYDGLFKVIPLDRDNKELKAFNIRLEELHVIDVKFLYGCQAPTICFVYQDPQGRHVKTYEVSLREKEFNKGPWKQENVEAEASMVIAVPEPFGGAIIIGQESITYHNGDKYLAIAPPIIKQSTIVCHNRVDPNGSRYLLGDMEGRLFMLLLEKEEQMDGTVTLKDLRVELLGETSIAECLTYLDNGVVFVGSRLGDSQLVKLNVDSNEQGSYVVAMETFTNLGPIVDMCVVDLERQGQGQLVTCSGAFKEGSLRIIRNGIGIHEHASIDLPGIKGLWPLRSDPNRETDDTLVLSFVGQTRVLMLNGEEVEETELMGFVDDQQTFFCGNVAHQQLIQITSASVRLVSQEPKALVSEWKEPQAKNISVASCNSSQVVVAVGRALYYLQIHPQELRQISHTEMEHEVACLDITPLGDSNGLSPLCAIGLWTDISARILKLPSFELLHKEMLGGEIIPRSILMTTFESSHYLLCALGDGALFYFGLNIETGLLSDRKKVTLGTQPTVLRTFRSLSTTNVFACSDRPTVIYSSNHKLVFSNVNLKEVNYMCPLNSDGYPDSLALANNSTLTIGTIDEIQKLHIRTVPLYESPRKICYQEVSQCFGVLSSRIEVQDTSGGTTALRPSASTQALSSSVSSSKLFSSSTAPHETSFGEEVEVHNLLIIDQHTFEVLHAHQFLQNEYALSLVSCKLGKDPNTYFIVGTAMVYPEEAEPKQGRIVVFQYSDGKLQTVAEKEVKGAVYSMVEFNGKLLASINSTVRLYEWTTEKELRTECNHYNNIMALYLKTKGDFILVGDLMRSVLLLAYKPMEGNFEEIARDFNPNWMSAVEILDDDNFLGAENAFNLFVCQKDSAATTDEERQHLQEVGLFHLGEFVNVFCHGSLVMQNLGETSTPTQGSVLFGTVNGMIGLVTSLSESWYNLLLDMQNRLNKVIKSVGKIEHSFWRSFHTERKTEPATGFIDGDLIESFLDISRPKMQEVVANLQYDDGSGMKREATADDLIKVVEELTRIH
Chain of Cyclin E1 (P24864 whole entry): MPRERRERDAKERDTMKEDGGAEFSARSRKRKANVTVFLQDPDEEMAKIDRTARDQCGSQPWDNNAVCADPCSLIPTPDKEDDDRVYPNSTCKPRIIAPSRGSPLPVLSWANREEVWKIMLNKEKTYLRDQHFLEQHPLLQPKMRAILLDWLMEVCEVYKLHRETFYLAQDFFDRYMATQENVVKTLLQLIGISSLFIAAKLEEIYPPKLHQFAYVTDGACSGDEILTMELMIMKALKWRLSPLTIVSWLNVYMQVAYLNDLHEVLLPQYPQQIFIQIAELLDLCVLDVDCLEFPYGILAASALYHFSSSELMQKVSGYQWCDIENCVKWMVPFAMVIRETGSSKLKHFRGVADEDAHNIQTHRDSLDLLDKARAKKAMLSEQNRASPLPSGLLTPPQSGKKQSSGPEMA
Chain of Cyclin E1 (Q96SW2 whole entry): as the sequence (Q96SW2 whole entry, the tested form may be a part) above
Chain of Cyclin E1 (Q16531 whole entry partner): as the sequence (Q16531 whole entry partner, the tested form may be a part) above

SMILES	IC50 [1] [nM]	DC50 [2] [nM]	Dmax [2] [%]	DC50 [3] [nM]	Dmax [3] [%]	Ratio of GSPT1 DC50/Cyclin E1 DC50 [3]	Emax [1] [%]
O=C1CCC(N2Cc3ccc(COC(=O)Nc4ccc(Oc5ccccc5Cl)cc4)c(OC4CCC4)c3C2=O)C(=O)N1 (stereo not shown) [Example 127, [4-cyclobutoxy-2-(2,6-dioxopiperidin-3-yl)-3-oxo-2,3-dihydro-1H-isoindol-5-yl]methyl N-[4-(2-chlorophenoxy)phenyl]carbamate]	48	> 14000	8	126	105	>111	121
O=C1CCC(N2Cc3ccc(COC(=O)Nc4ccc(Oc5cccc(F)c5)cc4)c(Oc4ccccc4)c3C2=O)C(=O)N1 (stereo not shown) [Example 64, [2-(2,6-dioxopiperidin-3-yl)-3-oxo-4-phenoxy-2,3-dihydro-1H-isoindol-5-yl]methyl N-[4-(3-fluorophenoxy)phenyl]carbamate]	83	> 14000	22	133	109	>105	111
COc1c(COC(=O)Nc2ccc(Oc3cccc(F)c3)cc2C)ccc2c1C(=O)N(C1CCC(=O)NC1=O)C2 (stereo not shown) [Example 39, [2-(2,6-dioxopiperidin-3-yl)-4-methoxy-3-oxo-2,3-dihydro-1H-isoindol-5-yl]methyl N-[4-(3-fluorophenoxy)-2-methylphenyl]carbamate]	127	> 14000	20	103	108	>136	111
COc1c(COC(=O)Nc2ccc(Oc3ccc(F)c(Cl)c3)cc2)ccc2c1C(=O)N(C1CCC(=O)NC1=O)C2 (stereo not shown) [Example 14, [2-(2,6-dioxopiperidin-3-yl)-4-methoxy-3-oxo-2,3-dihydro-1H-isoindol-5-yl]methyl N-[4-(3-chloro-4-fluorophenoxy)phenyl]carbamate]	363	> 14000	43	59	108	>239	96

Now from value to compound, other results behind:

IC50 [1] [nM]	DC50 [2] [nM]	Dmax [2] [%]	DC50 [3] [nM]	Dmax [3] [%]	Ratio of GSPT1 DC50/Cyclin E1 DC50 [3]	SMILES	Emax [1] [%]
145	> 14000	4	22	108	>635	O=C1CCC(N2Cc3ccc(COC(=O)Nc4ccc(Oc5ccccc5)cc4)c(O[C@@H]4CCCOC4)c3C2=O)C(=O)N1 (stereo partly drawn) [Example 142, [2-(2,6-dioxopiperidin-3-yl)-4-[(3R)-oxan-3-yloxy]-3-oxo-2,3-dihydro-1H-isoindol-5-yl]methyl N-(4-phenoxyphenyl)carbamate]	139
299	> 14000	24	417	96	>34	COc1c(COC(=O)Nc2ccc(Oc3cc(Cl)cc(Cl)c3)cc2F)ccc2c1C(=O)N(C1CCC(=O)NC1=O)C2 (stereo not shown) [Example 118, [2-(2,6-dioxopiperidin-3-yl)-4-methoxy-3-oxo-2,3-dihydro-1H-isoindol-5-yl]methyl N-[4-(3,5-dichlorophenoxy)-2-fluorophenyl]carbamate]	105
160	> 14000	0	170	107	>82	O=C1CCC(N2Cc3ccc(COC(=O)Nc4ccc(Oc5ccccc5)cc4)c(Oc4cccnc4)c3C2=O)C(=O)N1 (stereo not shown) [Example 171, [2-(2,6-dioxopiperidin-3-yl)-3-oxo-4-(pyridin-3-yloxy)-2,3-dihydro-1H-isoindol-5-yl]methyl N-(4-phenoxyphenyl)carbamate]	130
227	> 14000	30	203	104	>69	COc1cc(Oc2ccccc2C(F)F)ccc1NC(=O)OCc1ccc2c(c1OC)C(=O)N(C1CCC(=O)NC1=O)C2 (stereo not shown) [Example 88, [2-(2,6-dioxopiperidin-3-yl)-4-methoxy-3-oxo-2,3-dihydro-1H-isoindol-5-yl]methyl N-{4-[2-(difluoromethyl)phenoxy]-2-methoxyphenyl}carbamate]	10
115	> 14000	28	104	108	>135	COc1c(COC(=O)Nc2ccc(Oc3ccc(Cl)c(Cl)c3)cc2F)ccc2c1C(=O)N(C1CCC(=O)NC1=O)C2 (stereo not shown) [Example 117, [2-(2,6-dioxopiperidin-3-yl)-4-methoxy-3-oxo-2,3-dihydro-1H-isoindol-5-yl]methyl N-[4-(3,4-dichlorophenoxy)-2-fluorophenyl]carbamate]	108
45	> 14000	9	173	108	>81	CC(C)COc1c(COC(=O)Nc2ccc(Oc3ccc(F)c(F)c3)cc2)ccc2c1C(=O)N(C1CCC(=O)NC1=O)C2 (stereo not shown) [Example 138, [2-(2,6-dioxopiperidin-3-yl)-4-(2-methylpropoxy)-3-oxo-2,3-dihydro-1H-isoindol-5-yl]methyl N-[4-(3,4-difluorophenoxy)phenyl]carbamate]	120
